# Assays:
# IL-6 = IL-6 release (ELISA) in reconstructed 3D human intestinal epithelium stressed with LPS+TNF-alpha; conditions: for effect on release of IL-6 (in words): LPS+TNF-alpha stressed tissue, vs positive control, t-test; for IL-6 Anti-inflammatory activity: compared with CTR+ (LPS+TNF-alpha), * = p<0.05 vs positive control; for IL-6 Anti-inflammatory activity / IL-6 % var. vs CTR −: reference dose; for IL-6 % var. vs CTR −: variation vs untreated tissues (CTR−), LPS+TNF-alpha stressed
# Description: (§1) Assays of pro-inflammatory cytokines TNF-alpha and IL-6 were evaluated. The biological model used in the assay is a model of human intestinal epithelium reconstructed in vitro in 3D, consisting of intestinal epithelial and endothelial cells and fibroblasts of human origin. The highly differentiated tissue model is produced at the air-liquid interface in easily manageable culture tissue inserts using a serum-free medium. […] The cells used to produce the tissue model were screened for potential biological contaminants, using specific tests and analyses to guarantee the functionality and quality of the tissues.
# (§2) The intestinal epithelium tissues reconstructed in vitro were exposed for 24 hours to the stressor lipopolysaccharide of bacterial origin (LPS) in combination with cytokine TNF-alpha, and simultaneously treated for a further 24 hours with each experimental condition examined. After the 48-hour experimental session, the culture media were harvested to assay pro-inflammatory cytokines TNF-alpha and IL-6.
# (§3) Each ingredient and the mixture selected for the treatments were diluted in H2O, taking account of the average intestinal volume of 80 ml. In particular, the following reference doses were used: • calcium butyrate 500 mg; • gluconic acid 29.87 mg; • gluconic acid+calcium butyrate=29.87 mg+500 mg.
# (§4) 50 μl of each sample was tested in the tissue model, simulating the following experimental conditions: • reference dose; The experimental protocol involved: • untreated tissues (CTR−); • tissues exposed to pro-inflammatory agents LPS+TNF-alpha (CTR+); • tissues exposed to pro-inflammatory agents LPS+TNF-alpha and treated with butyrate (calcium butyrate); • tissues exposed to pro-inflammatory agents LPS+TNF-alpha and treated with gluconic acid; • tissues exposed to pro-inflammatory agents LPS+TNF-alpha and treated with gluconic acid+butyrate (calcium butyrate) mixture; • Each test was conducted in duplicate. To monitor the ability of the tested ingredients to inhibit the inflammatory response in vitro in a system wherein an inflammatory condition has been induced, the production of pro-inflammatory cytokine TNF-alpha and interleukin 6 (IL-6) was evaluated. At the end of the treatments the culture media were harvested for the TNF-alpha and IL-6 assay using an ELISA kit. The data obtained were subjected to statistical analysis and compared using the t-test. The variations compared with the positive control are deemed significant for p<0.05 and indicated by “*”.
# (§5) The results are expressed as mean values ±standard deviation (expressed in pg/ml), as % variation compared with CTR− and as anti-inflammatory activity compared with CTR+.
# TNF-alpha = TNF-alpha release (ELISA) in reconstructed 3D human intestinal epithelium stressed with LPS+TNF-alpha; conditions: for effect on release of TNF-alpha (in words): LPS+TNF-alpha stressed tissue, vs positive control, t-test; for TNF-alpha Anti-inflammatory activity: compared with CTR+ (LPS+TNF-alpha), * = p<0.05 vs positive control; for TNF-alpha Anti-inflammatory activity / TNF-alpha % var. vs CTR −: reference dose; for TNF-alpha % var. vs CTR −: variation vs untreated tissues (CTR−), LPS+TNF-alpha stressed
# Description: as §1, §2, §3, §4, §5
# [1] = oral intake; avoids digestion and absorption in the small intestine; cited from earlier work
smiles,measurement,setting,value
"CCCC(=O)O [Butyrate, calcium butyrate]",effect on release of IL-6 (in words),IL-6,significantly reduce release of the pro-inflammatory cytokine
same,IL-6 Anti-inflammatory activity,IL-6,23.8%*
same,IL-6 % var. vs CTR −,IL-6,61.5%
same,effect on release of TNF-alpha (in words),TNF-alpha,significantly reduce the release of the pro-inflammatory cytokine
same,TNF-alpha Anti-inflammatory activity,TNF-alpha,28.8%*
same,TNF-alpha % var. vs CTR −,TNF-alpha,40.5%
"O=C(O)[C@H](O)[C@@H](O)[C@H](O)[C@H](O)CO [Gluconic acid, gluconic acid]",gluconic acid introduced with the diet or diet supplements that reaches the large intestine,[1],over 70%
same,effect on release of IL-6 (in words),IL-6,significantly reduce release of the pro-inflammatory cytokine
same,IL-6 Anti-inflammatory activity,IL-6,24.3%*
same,IL-6 % var. vs CTR −,IL-6,60.5%
same,effect on release of TNF-alpha (in words),TNF-alpha,significantly reduce the release of the pro-inflammatory cytokine
same,TNF-alpha Anti-inflammatory activity,TNF-alpha,30.3%*
same,TNF-alpha % var. vs CTR −,TNF-alpha,37.6%
